According to US20210238170A1, “5,5-Difluoro- and 5-Fluoro-5-Methyl-C-Glycoside Derivatives Useful As Dual SGLT1 / SGLT2 Modulators” (Janssen Pharmaceutica NV, priority 2018, published 2021):

Tests used:
human SGLT1 = molecular target: T1, human SGLT1 (Homo sapiens, UniProt P13866); assay: SGLT1 in vitro assay: Na-dependent 14C-AMG uptake in CHO-K1 cells stably expressing human SGLT1; type: cell-based; conditions: CHO-K1 cells stably expressing human SGLT1, 14C-AMG uptake; for inhibition at 0.3 µM: read-out: SGLT1 % Inh @ 0.3 μM; for IC50: compounds of formula (I) where R0 is fluoro
T1 construct: expressed in transfected cells
T1 sequence (P13866 1-664): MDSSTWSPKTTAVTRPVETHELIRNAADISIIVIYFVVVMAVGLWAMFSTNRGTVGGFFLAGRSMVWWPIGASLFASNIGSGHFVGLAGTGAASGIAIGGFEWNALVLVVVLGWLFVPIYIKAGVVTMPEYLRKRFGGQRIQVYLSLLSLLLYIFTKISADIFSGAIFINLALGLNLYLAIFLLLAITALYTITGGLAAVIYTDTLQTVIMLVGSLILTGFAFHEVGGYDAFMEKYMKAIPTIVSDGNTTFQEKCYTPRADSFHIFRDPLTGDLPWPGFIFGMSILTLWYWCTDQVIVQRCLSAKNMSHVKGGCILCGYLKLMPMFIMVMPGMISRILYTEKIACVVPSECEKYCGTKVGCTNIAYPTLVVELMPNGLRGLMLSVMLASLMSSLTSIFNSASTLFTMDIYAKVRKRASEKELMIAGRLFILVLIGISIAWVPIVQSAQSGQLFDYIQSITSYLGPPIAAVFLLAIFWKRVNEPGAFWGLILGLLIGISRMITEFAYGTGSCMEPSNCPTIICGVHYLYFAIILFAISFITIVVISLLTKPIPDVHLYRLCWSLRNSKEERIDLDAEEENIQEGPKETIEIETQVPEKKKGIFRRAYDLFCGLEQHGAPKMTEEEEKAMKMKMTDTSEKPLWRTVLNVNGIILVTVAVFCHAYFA
Outline: (§1)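 CHO-K1 cells stably expressing human SGLT1 or SGLT2, induced with 10 mM Na-butyrate for 24 h. Compounds (0.001–10 μM) in Na+-containing HEPES/Tris buffer pH 7.4 were applied for 10 min, then 14C-AMG ([…]) for 2 h at 37°C; Na-dependent uptake read by scintillation; %-inhibition or IC50.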

human SGLT2 = molecular target: T2, human SGLT2 (Homo sapiens, UniProt P31639); assay: SGLT2 in vitro assay: Na-dependent 14C-AMG uptake in CHO-K1 cells stably expressing human SGLT2; type: cell-based; conditions: CHO-K1 cells stably expressing human SGLT2, 14C-AMG uptake; for inhibition at 0.3 µM: read-out: SGLT2 % Inh @ 0.3 μM; for IC50: compounds of formula (I) where R0 is fluoro
T2 construct: expressed in transfected cells
T2 sequence (P31639 1-672): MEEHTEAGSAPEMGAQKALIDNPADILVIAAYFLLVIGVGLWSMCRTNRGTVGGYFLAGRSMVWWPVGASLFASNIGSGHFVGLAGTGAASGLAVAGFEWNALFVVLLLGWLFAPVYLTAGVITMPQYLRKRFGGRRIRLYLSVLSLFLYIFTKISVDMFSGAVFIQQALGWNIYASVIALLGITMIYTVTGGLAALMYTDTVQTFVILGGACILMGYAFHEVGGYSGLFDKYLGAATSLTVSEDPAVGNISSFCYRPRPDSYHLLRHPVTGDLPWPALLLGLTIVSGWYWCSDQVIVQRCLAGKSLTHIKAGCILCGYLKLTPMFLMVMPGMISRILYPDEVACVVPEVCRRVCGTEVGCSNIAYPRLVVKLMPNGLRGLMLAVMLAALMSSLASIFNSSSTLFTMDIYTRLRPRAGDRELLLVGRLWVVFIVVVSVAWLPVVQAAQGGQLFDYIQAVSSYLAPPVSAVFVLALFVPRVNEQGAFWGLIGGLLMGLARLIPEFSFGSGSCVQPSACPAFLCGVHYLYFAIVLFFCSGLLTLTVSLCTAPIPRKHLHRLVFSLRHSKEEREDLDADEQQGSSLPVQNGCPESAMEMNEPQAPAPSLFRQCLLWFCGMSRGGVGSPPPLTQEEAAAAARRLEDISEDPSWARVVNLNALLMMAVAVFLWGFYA
Outline: as §1

Row | Compound | SGLT1 % Inh @ 0.3 μM (human SGLT1) [%] | SGLT2 % Inh @ 0.3 μM (human SGLT2) [%] | inhibition at 0.3 µM (human SGLT1) [%] | IC50 (human SGLT1) [nM] | inhibition at 0.3 µM (human SGLT2) [%] | IC50 (human SGLT2) [nM]
1 | Cc1c(Cc2ccc3c(c2)CCCO3)cc([C@@H]2O[C@H](CO)C(F)(F)[C@H](O)[C@H]2O)c2c1CCO2 [Compound 103] | 26.3 | 94.7 |  |  |  | 
2 | CCc1cc(O)c([C@@H]2O[C@H](CO)C(F)(F)[C@H](O)[C@H]2O)cc1Cc1ccc(OC(F)(F)F)cc1 [Compound 104] | 39.2 | 82.6 |  |  |  | 
3 | OC[C@H]1O[C@@H](c2cc(Cc3ccc(OC(F)(F)F)cc3)c(Cl)cc2O)[C@H](O)[C@@H](O)C1(F)F [Compound 105] | 38.9 | 91.8 |  |  |  | 
4 | COc1cc(Cl)c(Cc2ccc(OC(F)(F)F)cc2)cc1[C@@H]1O[C@H](CO)C(F)(F)[C@H](O)[C@H]1O [Compound 106] | 29.5 | 92.5 |  |  |  | 
5 | COc1ccc(Cc2cc([C@@H]3O[C@H](CO)C(F)(F)[C@H](O)[C@H]3O)c(O)cc2C)cc1 [Compound 108, (2S,3R,4R,6R)-5,5-difluoro-2-[2-hydroxy-5-[(4-methoxyphenyl)methyl]-4-methyl-phenyl]-6-(hydroxymethyl)tetrahydropyran-3,4-diol] |  |  | 66.6 | 70 | 94.4 | 1.6
6 | CCc1cc(OC)c([C@@H]2O[C@H](CO)C(F)(F)[C@H](O)[C@H]2O)cc1Cc1ccc(OC(F)(F)F)cc1 [Compound 109] | 27.4 | 70.5 |  |  |  | 
7 | Cc1cc(O)c([C@@H]2O[C@H](CO)C(F)(F)[C@H](O)[C@H]2O)cc1Cc1ccc(Cl)s1 [Compound 110] |  |  | 75 | 95 | 82.4 | 5.7
8 | OC[C@H]1O[C@@H](c2cc(Cc3ccc4c(c3)OCC4)c(Cl)cc2O)[C@H](O)[C@@H](O)C1(F)F [Compound 111, (2S,3R,4R,6R)-2-(4-chloro-5-((2,3-dihydrobenzofuran-6-yl)methyl)-2-hydroxyphenyl)-5,5-difluoro-6-(hydroxymethyl)-tetrahydro-2H-pyran-3,4-diol] |  |  | 84 | 57 | 85.2 | 0.9
9 | COc1cc(C)c(Cc2ccc(Cl)s2)cc1[C@@H]1O[C@H](CO)C(F)(F)[C@H](O)[C@H]1O [Compound 112] |  |  | 43.5 | 1030 | 81.1 | 4.5
10 | OC[C@H]1O[C@@H](c2cc(Cc3ccc4c(c3)CCO4)c(Cl)c3c2OCC3)[C@H](O)[C@@H](O)C1(F)F [Compound 114] | 36.8 | 80.6 |  |  |  | 
11 | COc1cc(Cl)c(Cc2ccc3c(c2)OCC3)cc1[C@@H]1O[C@H](CO)C(F)(F)[C@H](O)[C@H]1O [Compound 115] |  |  | 50.8 | 326 | 86.8 | 0.5
12 | OC[C@H]1O[C@@H](c2cc(Cc3ccc(OCF)cc3)c(Cl)cc2O)[C@H](O)[C@@H](O)C1(F)F [Compound 116, (2S,3R,4R,6R)-2-(4-chloro-5-{[4-(fluoromethoxy)phenyl]methyl}-2-hydroxyphenyl)-5,5-difluoro-6-(hydroxymethyl)oxane-3,4-diol] |  |  | 65.2 | 122 | 85.5 | 4.5
13 | COc1cc(O)c([C@@H]2O[C@H](CO)C(F)(F)[C@H](O)[C@H]2O)cc1Cc1ccc(OC(F)(F)F)cc1 [Compound 119] | 24.9 | 79.0 |  |  |  | 
14 | COc1cc(OC)c([C@@H]2O[C@H](CO)C(F)(F)[C@H](O)[C@H]2O)cc1Cc1ccc(OC(F)(F)F)cc1 [Compound 121] | 20.2 | 63.6 |  |  |  | 
15 | COc1cc(C)c(Cc2ccc(C3CC3)cc2)cc1[C@@H]1O[C@H](CO)C(F)(F)[C@H](O)[C@H]1O [Compound 123] | 30.6 | 89.3 |  |  |  | 
